Patent publication US20180370927A1, “MICROBIOCIDAL OXADIAZOLE DERIVATIVES” (SYNGENTA PARTICIPATIONS AG, priority 2015, published 2018)

How the values were obtained:
Uromyces viciae-Fabae = assay: Uromyces viciae-fabae / field bean / leaf disc preventative (faba-bean rust); format: in vivo; details: foliar, 288 h, 100 ppm in the applied formulation, field bean leaf discs, assessed 12 days after application, read-out: disease control compared to untreated control leaf discs
Experimental: Leaf disks or leaf segments of various plant species are cut from plants grown in a greenhouse. The cut leaf disks or segments are placed in multiwell plates (24-well format) onto water agar. The leaf disks are sprayed with a test solution before (preventative) or after (curative) inoculation. Compounds to be tested are prepared as DMSO solutions (max. 10 mg/mL) which are diluted to the appropriate concentration with 0.025% Tween20 just before spraying. The inoculated leaf disks or segments are incubated under defined conditions (temperature, relative humidity, light, etc.) according to the respective test system. A single evaluation of disease level is carried out 3 to 14 days after inoculation, depending on the pathosystem. Percent disease control relative to the untreated check leaf disks or segments is then calculated.
Example 5: Fungicidal Activity Against Uromyces viciae-Fabael Field Bean/Leaf Disc Preventative (Faba-Bean Rust)
Field bean leaf discs are placed on water agar in multiwell plates (96-well format) and 10 μL of the formulated test compound diluted in acetone and a spreader pipetted onto the leaf disc. Two hours after application leaf discs are inoculated by spraying a spore suspension on the lower leaf surface. The leaf discs are incubated in a climate cabinet at 22° C. with 18 hour days and 70% relative humidity. The activity of a compound is assessed as percent disease control compared to untreated when an appropriate level of disease damage appears in untreated check leaf disks (12 days after application).
The following compounds at 100 ppm in the applied formulation give at least 80% disease control in this test when compared to untreated control leaf discs under the same conditions, which show extensive disease development.

Phakopsora pachyrhizi = Phakopsora pachyrhizi / soybean / leaf disc preventative (Asian soybean rust); format: in vivo; details: foliar, 200 ppm in the applied formulation, soybean leaf disks, assessed 12 to 14 days after application, read-out: disease control compared to untreated control leaf disks
How it was run: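 Soybean leaf discs on water agar were sprayed with formulated compound diluted in water, then inoculated one day later with spore suspension on the lower leaf surface. Held 24-36 h dark at 20° C., 75% RH, then 12 h light/day; percent disease control versus untreated scored 12 to 14 days after application.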

[1] = test system: Glomerella lacenarium (Colletotrichum lacenarium); assay: Glomerella lacenarium (Colletotrichum lacenarium) liquid culture / cucumber / preventative (anthracnose); format: cell-based; details: 20 ppm in the applied formulation, liquid culture in PDB, 24° C., 3 to 4 days after application, read-out: disease control (inhibition of growth, photometric) compared to untreated control
How it was run: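 At 20 ppm in the applied formulation, compounds were mixed with fungal spores in potato dextrose broth and held at 24° C. After 3–4 days, photometric growth measurement gave percent antifungal activity relative to untreated control.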

[2] = test system: Puccinia recondita f. Sp. Tritici; assay: Puccinia recondita f. sp. tritici / wheat / leaf disc preventative (brown rust); format: in vivo; details: foliar, 200 ppm in the applied formulation, wheat leaf segments, preventative, assessed 7 to 9 days after application, read-out: disease control compared to untreated control leaf disks
How it was run: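 Wheat cv. Kanzler leaf segments on agar sprayed with formulated compound in water, inoculated with rust spores 1 day later. Incubated at 19° C, 75% rh, 12 h light/12 h dark; percent disease control versus untreated scored 7 to 9 days after application; tested at 200 ppm.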

[3] = test system: Puccinia recondita f. Sp. Tritici; assay: Puccinia recondita f. sp. tritici / wheat / leaf disc curative (brown rust); format: in vivo; details: foliar, 200 ppm in the applied formulation, wheat leaf segments, curative (applied 1 day after inoculation), assessed 6 to 8 days after application, read-out: disease control compared to untreated control leaf disks
How it was run: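 Curative treatment: formulated compound in water was applied 1 day post-inoculation to spore-inoculated wheat cv. Kanzler segments held on agar. Segments stayed at 19° C and 75% relative humidity (12 h photoperiod after application), and disease control relative to untreated checks was assessed 6 to 8 days later.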

SMILES | melting point | pest or weed control at 100 ppm (Uromyces viciae-Fabae) | pest or weed control at 200 ppm (Phakopsora pachyrhizi) | inhibition at 20 ppm [1] | pest or weed control at 200 ppm [2] | pest or weed control at 200 ppm [3]
C#CCNC(=O)C(=O)Nc1ccc(-c2noc(C(F)(F)F)n2)cc1 [Compound 4.5, N-prop-2-ynyl-N′-[4-[5-(trifluoromethyl)-1,2,4-oxadiazol-3-yl]phenyl]oxamide] | 212 to 214 °C | ≥ 80% | ≥ 80% | – | – | –
CN(C)C(=O)C(=O)Nc1ccc(-c2noc(C(F)(F)F)n2)cc1 [Compound 4.1, N′,N′-dimethyl-N-[4-[5-(trifluoromethyl)-1,2,4-oxadiazol-3-yl]phenyl]oxamide] | 127 to 130 °C | ≥ 80% | ≥ 80% | ≥ 80% | ≥ 80% | ≥ 80%
CCOC(=O)C(=O)Nc1ccc(-c2noc(C(F)(F)F)n2)cc1 [Compound 2.3, ethyl 2-oxo-2-[4-[5-(trifluoromethyl)-1,2,4-oxadiazol-3-yl]anilino]acetate] | 164 to 166 °C | ≥ 80% | – | – | ≥ 80% | –
CNC(=O)C(=O)Nc1ccc(-c2noc(C(F)(F)F)n2)cc1 [Compound 4.7, N-methyl-N′-[4-[5-(trifluoromethyl)-1,2,4-oxadiazol-3-yl]phenyl]oxamide] | 231 to 234 °C | ≥ 80% | ≥ 80% | – | ≥ 80% | ≥ 80%
CN(C)C(=O)C(=O)NCc1ccc(-c2noc(C(F)(F)F)n2)cc1 [Compound 4.2] | 107 to 112 °C | ≥ 80% | ≥ 80% | ≥ 80% | ≥ 80% | ≥ 80%
CN(C)NC(=O)C(=O)Nc1ccc(-c2noc(C(F)(F)F)n2)cc1 [Compound 4.8, 2-(2,2-dimethylhydrazino)-2-oxo-N-[4-[5-(trifluoromethyl)-1,2,4-oxadiazol-3-yl]phenyl]acetamide] | 232 to 234 °C | ≥ 80% | ≥ 80% | – | – | –
COCCNC(=O)C(=O)Nc1ccc(-c2noc(C(F)(F)F)n2)cc1 [Compound 4.4, N-(2-methoxyethyl)-N′-[4-[5-(trifluoromethyl)-1,2,4-oxadiazol-3-yl]phenyl]oxamide] | 204 to 205 °C | ≥ 80% | ≥ 80% | – | ≥ 80% | ≥ 80%

More lines, main results first:

melting point | SMILES | pest or weed control at 100 ppm (Uromyces viciae-Fabae) | pest or weed control at 200 ppm (Phakopsora pachyrhizi) | inhibition at 20 ppm [1] | pest or weed control at 200 ppm [2] | pest or weed control at 200 ppm [3]
163 to 165 °C | CON(C)C(=O)C(=O)Nc1ccc(-c2noc(C(F)(F)F)n2)cc1 [Compound 4.9, N′-methoxy-N′-methyl-N-[4-[5-(trifluoromethyl)-1,2,4-oxadiazol-3-yl]phenyl]oxamide] | ≥ 80% | ≥ 80% | ≥ 80% | ≥ 80% | –
238 to 241 °C | O=C(Nc1ccc(-c2noc(C(F)(F)F)n2)cc1)C(=O)NC1CC1 [Compound 4.6, N′-cyclopropyl-N-[4-[5-(trifluoromethyl)-1,2,4-oxadiazol-3-yl]phenyl]oxamide] | ≥ 80% | ≥ 80% | – | – | –
209 to 212 °C | O=C(NCC1CC1)C(=O)Nc1ccc(-c2noc(C(F)(F)F)n2)cc1 [Compound 4.3, N-(cyclopropylmethyl)-N′-[4-[5-(trifluoromethyl)-1,2,4-oxadiazol-3-yl]phenyl]oxamide] | ≥ 80% | ≥ 80% | – | – | –
